Where two headings read alike, the source gives them in different places.
Legend:
Format in all cases: cell-based
[1] = tested on: HCT116 (human colorectal carcinoma); experiment: Disk diffusion assay, zone of inhibition, HCT116; details: 1 mg/mL
Experimental: (§1) A disk diffusion assay was performed to define the differential cell killing ability of 15-O-(3′-hydroxy-3′-isopropyl-4′-methylpentanoyl)bruceolide. Seven cell types were assayed: L1210 (ATCC CCL-219) (murine leukemia), CCRF-CEM (ATCC CCL-119) (human leukemia), Colon 38 (murine colon adenocarcinoma), HCT116 (ATCC CCL-247) (human colorectal carcinoma), H125 (human lung carcinoma). The murine and human granulocyte/macrophage progenitor cell line (CFU-GM), served as controls.
(§2) Colon 38 cells (about 1 gram) were cut into small fragments in 15 mL of Hank's Balanced Salt Solution (HBSS) over a 100-mesh sieve and gently forced through by the scissors with HBSS constantly perfusing the sieve. The resulting material was then drawn into and out of a 5 mL syringe without a needle to further disperse the cell clumps. The cell solution was diluted and plated in 0.3% agarose in DMEM plus 10% heat-inactivated Bovine Calf Serum (BCS). For plating of all of the cell types (except controls), the 60 mm plates were first prepared with a hard agar bottom layer (0.6% agar in RPMI-1640 plus 15% BCS).
(§3) HCT116 and H125 cells were maintained in cell culture, and were removed from culture by a trypsin-collagenase-DNAase cocktail. The plating efficiencies of each cell type was sufficiently high that 30,000 cells in 3 mL produced the desired number of colonies (i.e., over 10,000 per plate) in 60 mm plates. This soft agar top layer (0.3% with the serum and media as above) plus the titrated tumor cells were poured into the plates and allowed to solidify.
(§4) A 15 μl sample of each compound was dropped onto a 6.5 mm disk (Baxter filter disks). The disks were allowed to dry overnight and then placed close to the edge of a petri dish. Depending upon the cell type, the dishes were incubated for 7 to 10 days, and examined by an inverted stereo-microscope (10×) for measurement of the zone of inhibition. The zone of inhibition was measured from the edge of the filter disk to the beginning of normal-sized colony formation. The diameter of the filter disk, 6.5 mm, was arbitrarily taken as a zone of 200 units. Compounds that were selective for killing solid tumors, as compared to leukemia or normal cells (“solid tumor selective”) were defined as those compounds which produced a difference in zones between solid tumor cells and either normal or leukemia cells of at least 250 units. The results of this analysis are set forth in Table 4, which illustrates the relative diameters of the zones of inhibition by various drugs on the growth of the respective cell types at various drug dilutions.

[2] = tested on: H125 (human lung carcinoma); experiment: Disk diffusion assay, zone of inhibition, H125; details: 1 mg/mL
Experimental: as §1, §2, §3, §4

[3] = tested on: CCRF-CEM (human leukemia); experiment: Disk diffusion assay, zone of inhibition, CCRF-CEM; details: 1 mg/mL
Experimental: as §1, §2, §4

[4] = tested on: Colon 38 (murine colon adenocarcinoma); experiment: Disk diffusion assay, zone of inhibition, Colon 38; zone differentials, potency and product; design: key to C38ΔL1210 / C38ΔCFU: difference of zone of inhibition values, in zone units; details: for zone of inhibition, Colon 38: 1 mg/mL
Procedure, shortened: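 Dissociated Colon 38 cells were plated in soft agar over a hard agar layer; 15 µl of compound dilution dried on a 6.5 mm disk was placed on the plate, and incubation ran 7–10 days. Inhibition zone was measured from disk edge to normal colonies, with the disk diameter = 200 units. Potency = dilution giving 500 units; the product multiplies it by the differentials against L1210 or CFU-GM.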

[5] = tested on: murine CFU-GM; experiment: Disk diffusion assay, zone of inhibition, murine CFU-GM; details: 1 mg/mL
Experimental: as §1
(§5) For CFU-GM cells, the femoral marrow of BD2F1 mice was flushed with MEM alpha (2 mL per femur). The cells were passed through an 18 gauge needle twice and the monodispersed suspension was counted. A total of 1.5×10^6 cells were plated in 3 mL of 0.3% agar with the addition of 10% L cell conditioned media, which provided colony stimulating factor, in MEM-alpha plus 10% BCS. For human CFU-GM, the cells were obtained from Poietic Technologies, Inc. (Gaithersburg, Md.) and washed twice with PBS before being titered and added to the agar mixture. The same cell number, culture conditions, and conditioning factors used with respect to the murine CFU-GM cells were used with the human cells, except that the cultures were assessed after 10 days of incubation.
as §4

[6] = tested on: human CFU-GM; details: 1 mg/mL
Experimental: as §1, §5, §4

[7] = tested on: L1210 (murine leukemia); experiment: Disk diffusion assay, zone of inhibition, L1210; details: 1 mg/mL
Experimental: as §1, §2, §4

[8] = no dilution, 15 μl on disk, 6.5 mm = 200 units

## CC(=O)O[C@H]1C(=O)[C@@]2(C)[C@H]([C@H](OC(=O)c3ccccc3)[C@]3(O)C[C@H](OC(=O)[C@H](O)[C@@H](NC(=O)c4ccccc4)c4ccccc4)C(C)=C1C3(C)C)[C@]1(OC(C)=O)CO[C@@H]1C[C@@H]2O [Taxol, taxol]
[1]; dilution 1/4
  zone of inhibition, H-116: 750 units
[1]; dilution 1/16
  zone of inhibition, H-116: 650 units
[1]; dilution 1/64
  zone of inhibition, H-116: 550 units
[1]; dilution 1/256
  zone of inhibition, H-116: 400 units
[1]; [8]
  zone of inhibition, H-116: 850 units
[2]; dilution 1/4
  zone of inhibition, H-125 M: 850 units
[2]; dilution 1/16
  zone of inhibition, H-125 M: 750 units
[2]; dilution 1/64
  zone of inhibition, H-125 M: 650 units
[2]; dilution 1/256
  zone of inhibition, H-125 M: 500 units
[2]; [8]
  zone of inhibition, H-125 M: >1000 units
[3]; dilution 1/4
  zone of inhibition, CEM: >1000 units
[3]; dilution 1/16
  zone of inhibition, CEM: 900 units
[3]; dilution 1/64
  zone of inhibition, CEM: 750 units
[3]; dilution 1/256
  zone of inhibition, CEM: 550 units
[3]; [8]
  zone of inhibition, CEM: >1000 units
[4]; dilution 1/4
  zone of inhibition, Colon 38: 900 units
[4]; dilution 1/16
  zone of inhibition, Colon 38: 750 units
[4]; dilution 1/64
  zone of inhibition, Colon 38: 600 units
[4]; dilution 1/256
  zone of inhibition, Colon 38: 450 units
[4]; [8]
  zone of inhibition, Colon 38: >1000 units
[4]; C38ΔL1210 plus C38ΔCFU
  Sum: 700
[4]; difference between zone of inhibition values, Colon38 vs L1210 leukemia
  C38ΔL1210: 400
[4]; difference between zone of inhibition values, Colon38 vs normal cell CFU-GM
  C38ΔCFU: 300
[4]; potency multiplied by zone differentials
  Product: 3500
[5]; dilution 1/4
  zone of inhibition, murine CFU-GM: 600 units
[5]; dilution 1/16
  zone of inhibition, murine CFU-GM: 550 units
[5]; dilution 1/64
  zone of inhibition, murine CFU-GM: 400 units
[5]; dilution 1/256
  zone of inhibition, murine CFU-GM: 150 units
[5]; [8]
  zone of inhibition, murine CFU-GM: 650 units
[6]; dilution 1/4
  zone of inhibition, human CFU-GM: >1000 units
[6]; dilution 1/16
  zone of inhibition, human CFU-GM: 800 units
[6]; dilution 1/64
  zone of inhibition, human CFU-GM: 750 units
[6]; dilution 1/256
  zone of inhibition, human CFU-GM: 550 units
[6]; [8]
  zone of inhibition, human CFU-GM: >1000 units
[7]; dilution 1/4
  zone of inhibition, L1210: 550 units
[7]; dilution 1/16
  zone of inhibition, L1210: 500 units
[7]; dilution 1/64
  zone of inhibition, L1210: 350 units
[7]; dilution 1/256
  zone of inhibition, L1210: 50 units
[7]; [8]
  zone of inhibition, L1210: 650 units
